“Also recorded” adds a separate entry of the source.
Legend:
Survivin = assay: Nuclear export of Survivin-GFP fusion transiently expressed in HeLa cells; format: cell-based; conditions: transient expression, 25µM
Description: The activity of compounds to inhibit the export of the oncologically relevant protein Survivin as well as of the HIV-1 Rev protein was analyzed.
Nuclear export of Survivin is crucial for its tumor promoting cytoprotective activity (Engels et al., 2007; Knauer et al., 2007a; Knauer et al., 2007b).

HeLa cells = assay: Cell viability (CellTiter-Glo) and cell death, HeLa; format: cell-based; conditions: for cell death induced by treatment: HeLa (cervix carcinoma), 25µM; for viability compared to the control: HeLa, 100µM, 72h, CellTiter-Glo; for IC50: Homo sapiens, compound concentration reducing HeLa cell viability by 50%
Description: (§1) To test the anti-cancer activity of the compounds, several cancer cell lines, currently used as models for different epithelial cancers and leukemias, were treated with the indicated inhibitors. […] Every 24h, the cell culture medium was replaced by fresh compound-containing medium. 72h post treatment, cell were analyzed by adding 100µl CellTiter-Glo® assay reagent (Promega). Luminescence was measured with a LuminoskanAscent device (ThermoScientific). Cells treated with a corresponding amount of DMSO only were use as a control. The luminescence (equals cell viability) of said control was set to 100%.
(§2) IC50 value corresponds to compound concentration reducing HeLa cell viability by 50%. Topt is the time point post treatment when maximum nuclear export inhibition was observed by fluorescence microscopy. Table 4: Functional characteristics of nuclear export inhibitors
It was assessed whether the export inhibitors also affect the viability of non-malignant human cells, precluding their potential (pre)clinical use. 10^3 freshly isolated non-malignant primary human fibroblasts (HTF-8) or HeLa cells/well were seeded and 24h later treated with the indicated compounds (final concentration: 100µM). Every 24h cell culture medium was replaced by freshly prepared compound-containing medium. 72h post treatment the cells were analyzed by adding 100µl CellTiter-Glo® assay reagent, and luminescence measured with a LuminoskanAscent (ThermoScientific). Cells treated with DMSO only were used as a control. The fluorescence measured (equals cell viability) with said control was set to 100%.

[1] = system: HIV-1 (strain NL4-3; CXCR-4 tropic); assay: HIV-1 replication inhibition assay in infected Tzm-bl cells (RT activity in supernatant); format: cell-based; conditions: 25 or 50µM added 24h post infection, read 48h post infection
Description: The HIV-1 Rev protein transports unspliced and inclompletely spliced viral RNAs from the nucleus into the cytoplasm, crucial for viral replication and AIDS development (Pavlakis and Stauber, 1998; Stauber et al., 1995). […] 24h post infection, DMSO only (control) or compounds C3 or C5 (stock solution in DMSO) were added to a final concentration of 25 or 50µM. 24h later (= 48h post infection) the viral particles in the supernatant were quantified by measuring reverse transcriptase (RT) activity in the viral supernatant using the RT-Lenti Kit (Cavidi-Tech; Uppsala, Sweden) (see Fig. 6A).

SUP-B15 = assay: Cell death, SUP-B15; format: cell-based; conditions: SUP-B15 (B cell precursor ALL), 25µM
K562 = assay: AlamarBlue viability assay, K562, alone and combined with imatinib; format: cell-based, human; conditions: K562, 25µM, 72h, single agent
Description: The BCR-ABL^+ human chronic myeloid leukemia (CML) cell line K562 was used to investigate whether combining export inhibitors with chemotherapeutic drugs currently used in the clinics enhances drug-induced cancer cell death.
72h post treatment, cells were analyzed by adding 10µl of AlamarBlue® (Invitrogen). Fluorescence (538/600nm) was measured with a LuminoskanAscent (ThermoScientific). Cells treated with DMSO only were used as a control. The fluorescence measured (equals cell viability) with said control was set to 100%.

LS174T = assay: Cell viability (CellTiter-Glo) and cell death, LS174T; format: cell-based; conditions: for cell death induced by treatment: LS174T (colon adenocarcinoma), 25µM; for viability compared to the control: LS174T, 100µM, 72h, CellTiter-Glo
Description: as §1

RevNES-biosensor [2] = assay: RevNES-biosensor translocation (NES-mediated nuclear export) in living HeLa cells, fluorescence microscopy; format: cell-based; conditions: for Cellular localization of green fluorescent RevNES-biosensor: HeLa; for Topt at 25µM: Table 4, fluorescence microscopy; for Mode of Inhibition: reversal of export inhibition after 24h, C5: 5-12h observation
Description: (§3) The activity of compounds C3, C5 and C24 to inhibit NES-mediated nuclear export in living cells was analyzed as described in Fetz et al., 2009 using living HeLa (cervix carcinoma), FaDu (head and neck cancer), MDA-MB231 (mammacarcinoma) and SW480 cells (colon cancer) which transiently expressed the RevNES-biosensor. The RevNES-biosensor is a fusion protein composed of (from N to C terminus) the SV40 large T-antigen nuclear localization signal (NLS), glutathion-S-transferase (GST), green fluorescent protein (GFP) and the nuclear export signal (NES) of the HIV-1 (human immunodeficiency virus) Rev protein (RevNES).
The cells of the control were treated with a corresponding amount of DMSO only. The cellular localization of RevNES-biosensor was monitored by fluorescence microscopy. […] Maximum of cellular accumulation was observed after 1h (C24), after 2h (C3) and after 5h (C5), respectively. […] Thus, the inhibitory activity of C3 and C24 (reversible) but not of C5 (irreversible) was reversed after 24h. Table 1: Cellular localization of green fluorescent RevNES-biosensor
Table 3: Cellular localization of green fluorescent RevNES-biosensor
as §2

FaDu = assay: Cell viability (CellTiter-Glo) and cell death, FaDu; format: cell-based; conditions: for cell death induced by treatment: FaDu (head and neck cancer), 25µM; for viability compared to the control: FaDu, 100µM, 72h, CellTiter-Glo
Description: as §1

RevNES-biosensor [3] = assay: RevNES-biosensor translocation in living FaDu, MDA-MB231 and SW480 cells, fluorescence microscopy; format: cell-based; conditions: at Topt
Description: as §3
Maximum nuclear localization of fluorescence was observed after 2h (C3) and 5h (C5), respectively. Table 2: Cellular localization of green fluorescent RevNES-biosensor

K562 (Bcr-Abl^+) = assay: Cell death, K562; format: cell-based; conditions: K562 (Bcr-Abl^+) (chronic myeloid leukemia, CML), 25µM
[4] = In vivo toxicity in nude mice; conditions: male NMRI nu/nu mice, i.p. three times every second day, 200µl 1mM
Description: To investigate whether the nuclear export inhibitors cause toxic effects in vivo, six-week-old male NMRI nu/nu mice were injected three times intraperitoneally (i.p.) every second day with 200µl 1mM C3 or C5 (5 mice each), or with 200µl DMSO only (control, 2 mice).

KASUMI-1 = assay: Cell death, KASUMI-1; format: cell-based; conditions: KASUMI-1 (acute myeloid leukemia, AML), 25µM
HIV-1 Rev protein = assay: Nuclear export of HIV-1 Rev-GFP in actinomycin D treated HeLa cells; format: cell-based; conditions: 25µM
From the text: The HIV-1 Rev protein transports unspliced and incompletely spliced viral RNAs from the nucleus into the cytoplasm (Stauber et al., 1995). As such, Rev's export function is crucial for viral replication and AIDS development (Pavlakis and Stauber, 1998; Stauber et al., 1995).

Row | Structure (SMILES) | Localization of Survivin-GFP fusion (nuclear export of Survivin) (Survivin) | cell death induced by treatment (HeLa cells) | viability compared to the control (HeLa cells) | IC50 (HeLa cells) [µM] | RT-activity in the viral supernatant compared to the control [1] | cell death induced by treatment (SUP-B15) | cancer cell death (AlamarBlue viability) (K562) | cell death induced by treatment (LS174T) | viability compared to the control (LS174T) | Cellular localization of green fluorescent RevNES-biosensor (RevNES-biosensor [2]; 25µM, T = 0h) | Cellular localization of green fluorescent RevNES-biosensor (RevNES-biosensor [2]; 25µM, T = 24h) | Cellular localization of green fluorescent RevNES-biosensor (RevNES-biosensor [2]; 25µM, at Topt) | Cellular localization of green fluorescent RevNES-biosensor (RevNES-biosensor [2]; 75µM, T = 0h) | Cellular localization of green fluorescent RevNES-biosensor (RevNES-biosensor [2]; 150µM, T = 0h) | Topt at 25µM (RevNES-biosensor [2]; 25µM) | Mode of Inhibition (RevNES-biosensor [2]) | cell death induced by treatment (FaDu) | viability compared to the control (FaDu) | Cellular localization of green fluorescent RevNES-biosensor (RevNES-biosensor [3]; FaDu, 25µM) | Cellular localization of green fluorescent RevNES-biosensor (RevNES-biosensor [3]; MDA-MB231, 25µM) | further results
1 | NC(=O)c1c(NC(NC(=O)c2ccccc2F)(C(F)(F)F)C(F)(F)F)sc2c1CCCC2 [Compound C3, 2-[[1,1,1,3,3,3-hexafluoro-2-[(2-fluorobenzoyl)amino]propan-2-yl]amino]-4,5,6,7-tetrahydro-1-benzothiophene-3-carboxamide] | inhibited; also recorded: accumulated in the nucleus | cell death | significantly reduced viability; also recorded: significantly affect the viability | 38 | significantly reduced the RT-activity | cell death | caused cancer cell death | cell death | significantly reduced viability | cytoplasm | predominantly localized in the cytoplasm | nuclear accumulation; also recorded: nucleus | cytoplasm | cytoplasm | ∼1h | reversible | cell death | significantly reduced viability | nuclear accumulation; also recorded: nucleus | nuclear accumulation; also recorded: nucleus | Cellular localization of green fluorescent RevNES-biosensor (RevNES-biosensor [2]; 25µM, T = 1h): nucleus/cytoplasm; Cellular localization of green fluorescent RevNES-biosensor (RevNES-biosensor [2]; 75µM, T = 1h): nucleus; Cellular localization of green fluorescent RevNES-biosensor (RevNES-biosensor [2]; 150µM, T = 1h): nucleus; Cellular localization of green fluorescent RevNES-biosensor (RevNES-biosensor [3]; SW480, 25µM): nuclear accumulation; also recorded: nucleus; cell death induced by treatment (K562 (Bcr-Abl^+)): cell death; other signs of in vivo toxicity [4]: no significant weight loss (see Figure 5) or other signs of in vivo toxicity were observed; weight loss compared to the DMSO control [4]: no significant weight loss; cell death induced by treatment (KASUMI-1): cell death; Localization of HIV-1 Rev-GFP (nuclear export of HIV-1 Rev protein) (HIV-1 Rev protein): inhibited; also recorded: restored the nuclear accumulation
2 | O=C(NC1CS(=O)(=O)CC1Cl)c1cccc(C(F)(F)F)c1 (stereo not shown) [Compound C5, N-(4-chloro-1,1-dioxothiolan-3-yl)-3-(trifluoromethyl)benzamide] | inhibited; also recorded: accumulated in the nucleus | cell death | significantly reduced viability; also recorded: significantly affect the viability | 17 | significantly reduced the RT-activity | cell death | caused cancer cell death | cell death | significantly reduced viability | cytoplasm | nuclear fluorescence; also recorded: nucleus | nuclear accumulation; also recorded: nucleus | cytoplasm | cytoplasm | 5 to 6 h | irreversible; also recorded: irreversible* | cell death | significantly reduced viability | nuclear accumulation; also recorded: nucleus | nuclear accumulation; also recorded: nucleus | Cellular localization of green fluorescent RevNES-biosensor (RevNES-biosensor [2]; 25µM, T = 3h): nucleus/cytoplasm; Cellular localization of green fluorescent RevNES-biosensor (RevNES-biosensor [2]; 75µM, T = 3h): nucleus; Cellular localization of green fluorescent RevNES-biosensor (RevNES-biosensor [2]; 150µM, T = 3h): nucleus; Cellular localization of green fluorescent RevNES-biosensor (RevNES-biosensor [3]; SW480, 25µM): nuclear accumulation; also recorded: nucleus; cell death induced by treatment (K562 (Bcr-Abl^+)): cell death; other signs of in vivo toxicity [4]: no significant weight loss (see Figure 5) or other signs of in vivo toxicity were observed; weight loss compared to the DMSO control [4]: no significant weight loss; cell death induced by treatment (KASUMI-1): cell death; Localization of HIV-1 Rev-GFP (nuclear export of HIV-1 Rev protein) (HIV-1 Rev protein): inhibited; also recorded: restored the nuclear accumulation
